Source: ChEMBL document CHEMBL4033742, “Novel 3-fluoro-6-methoxyquinoline derivatives as inhibitors of bacterial DNA gyrase and topoisomerase IV” (Bioorg Med Chem Lett, 2017)
Converted amounts (≈) assume the structure as drawn.

Legend:
[1] = Inhibition of Staphylococcus aureus DNA topoisomerase 4
[2] = Inhibition of Staphylococcus aureus DNA gyrase
[3] = Ratio of fAUC in fluoroquinolone-resistant Staphylococcus aureus infected mouse neutropenic thigh model to MIC for fluoroquinolone-resistant Staphylococcus aureus
[4] = Half life in rat at 2 mg/kg, iv; assay type: ADME, organism-based; conditions: in vivo
[5] = Fraction unbound in human plasma; assay type: ADME, cell-free
[6] = Fraction unbound in rat plasma; assay type: ADME, cell-free
[7] = test system: Staphylococcus aureus; experiment: Antibacterial activity against Staphylococcus aureus; assay type: functional
[8] = Volume of distribution at steady state in mouse at 10 mg/kg, iv; assay type: ADME, organism-based; conditions: in vivo, read-out: Vdss
[9] = test system: Staphylococcus aureus; experiment: Antibacterial activity against fluoroquinolone-resistant Staphylococcus aureus infected in mouse neutropenic thigh model assessed as static dose required for bacterial stasis; assay type: functional
[10] = Clearance in mouse at 10 mg/kg, iv; assay type: ADME, organism-based; conditions: in vivo
[11] = test system: Staphylococcus aureus; experiment: Antibacterial activity against Staphylococcus aureus containing DNA gyrase M121K mutations; assay type: functional
[12] = Half life in mouse at 10 mg/kg, iv; assay type: ADME, organism-based; conditions: in vivo
[13] = test system: Streptococcus pyogenes; experiment: Antibacterial activity against Streptococcus pyogenes; assay type: functional
[14] = Fraction unbound in mouse plasma; assay type: ADME, cell-free
[15] = test system: Staphylococcus aureus; experiment: Antibacterial activity against fluoroquinolone-sensitive Staphylococcus aureus 1146; assay type: functional
[16] = biological target: Voltage-gated inwardly rectifying potassium channel KCNH2 (Homo sapiens, UniProt Q12809); experiment: Inhibition of human ERG
Sequence of Voltage-gated inwardly rectifying potassium channel KCNH2 (Q12809 whole entry): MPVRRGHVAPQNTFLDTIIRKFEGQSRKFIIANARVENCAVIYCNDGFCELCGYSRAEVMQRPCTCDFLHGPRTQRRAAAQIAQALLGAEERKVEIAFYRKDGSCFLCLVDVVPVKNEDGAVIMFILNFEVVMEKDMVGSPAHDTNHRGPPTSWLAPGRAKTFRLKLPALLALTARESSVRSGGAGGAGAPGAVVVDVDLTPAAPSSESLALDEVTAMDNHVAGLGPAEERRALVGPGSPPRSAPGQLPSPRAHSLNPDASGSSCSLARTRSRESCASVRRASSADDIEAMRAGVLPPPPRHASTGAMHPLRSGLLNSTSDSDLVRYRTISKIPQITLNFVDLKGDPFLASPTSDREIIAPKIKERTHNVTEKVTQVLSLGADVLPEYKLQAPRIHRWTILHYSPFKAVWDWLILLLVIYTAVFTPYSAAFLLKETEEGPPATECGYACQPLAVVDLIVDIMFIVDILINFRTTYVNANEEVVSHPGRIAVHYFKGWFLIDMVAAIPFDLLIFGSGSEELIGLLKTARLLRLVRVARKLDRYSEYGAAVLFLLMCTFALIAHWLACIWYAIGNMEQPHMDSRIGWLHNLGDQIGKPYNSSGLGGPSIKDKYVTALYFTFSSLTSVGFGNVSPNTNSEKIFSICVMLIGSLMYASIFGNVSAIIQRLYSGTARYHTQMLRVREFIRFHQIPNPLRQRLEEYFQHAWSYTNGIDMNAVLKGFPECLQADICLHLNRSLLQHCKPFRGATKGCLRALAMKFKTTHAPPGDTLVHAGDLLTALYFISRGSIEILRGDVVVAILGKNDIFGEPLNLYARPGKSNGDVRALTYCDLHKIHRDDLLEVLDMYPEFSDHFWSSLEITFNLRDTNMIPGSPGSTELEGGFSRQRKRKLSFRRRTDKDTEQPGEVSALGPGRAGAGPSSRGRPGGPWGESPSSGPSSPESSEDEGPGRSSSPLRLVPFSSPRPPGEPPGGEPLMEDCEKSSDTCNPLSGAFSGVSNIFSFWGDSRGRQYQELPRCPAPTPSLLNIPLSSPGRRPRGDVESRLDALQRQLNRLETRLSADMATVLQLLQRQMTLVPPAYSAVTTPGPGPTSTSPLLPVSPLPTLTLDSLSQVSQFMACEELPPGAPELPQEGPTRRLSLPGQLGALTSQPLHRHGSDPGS

[17] = test system: Staphylococcus aureus; experiment: Antibacterial activity against Staphylococcus aureus containing DNA gyrase D83N mutations; assay type: functional
[18] = test system: Staphylococcus aureus; experiment: Antibacterial activity against fluoroquinolone-resistant Staphylococcus aureus 1095; assay type: functional
[19] = Volume of distribution at steady state in rat at 2 mg/kg, iv; assay type: ADME, organism-based; conditions: in vivo, read-out: Vdss
[20] = Clearance in rat at 2 mg/kg, iv; assay type: ADME, organism-based; conditions: in vivo

Row | Compound | IC50 [1] [µM] | IC50 [2] [µM] | MIC90 [7] [µg/mL] | MIC [11] [µg/mL] | MIC90 [13] [µg/mL] | MIC [15] [µg/mL] | MIC [17] [µg/mL] | MIC [18] [µg/mL] | further results
1 | COc1ccc2ncc(F)c([C@@H](O)CC[C@@H]3CCN(CCSc4cccs4)C[C@@H]3C(=O)O)c2c1 | 30.4 | 1.56 | – | – | – | – | – | – | –
2 | COc1ccc2nccc([C@@H](O)CC[C@@H]3CCN(CCSc4cccs4)C[C@@H]3C(=O)O)c2c1 | 84.6 | 2.42 | – | – | – | – | – | – | –
3 | N#Cc1ccc2ccc(=O)n(CCN3CC[C@H](NCc4cc5c(cn4)OCCO5)[C@H](F)C3)c2c1 | – | – | – | – | – | – | – | – | Ratio [3]: 36
4 | COc1ccc2nccc([C@@H](O)CC[C@@H]3CCN(C4CC(c5ccccc5)C4)C[C@@H]3C(=O)O)c2c1 (stereo not given in full) | 32.1 | 1.19 | 0.25 to 1 (≈ 0.527 to 2.11 µM) | ≥ 64 | 1 to 2 (≈ 2.11 to 4.21 µM) | – | – | – | half-life [4]: 19.8 min; fraction unbound [5]: 0.079 to 0.155; fraction unbound [6]: 0.296 to 0.437; Vd [8]: 1.06 L/kg; Activity [9]: 123.1 mg/kg/day; clearance [10]: 36 mL/min/kg; half-life [12]: 20.4 min; fraction unbound [14]: 0.129 to 0.246
5 | COc1ccc2nccc([C@@H](O)CC[C@@H]3CCN(C4CC(c5c(F)cccc5F)C4)C[C@@H]3C(=O)O)c2c1 (stereo not given in full) | 100 to 120 | 2.93 | – | – | – | – | – | – | –
6 | COc1ccc2nccc([C@@H](O)CC[C@@H]3CCN(C4CC(c5cc(F)ccc5F)C4)C[C@@H]3C(=O)O)c2c1 (stereo not given in full) | 9.62 | 3 | – | – | – | – | – | – | –
7 | O=c1ccc2ncc(F)c3c2n1C[C@@]3(O)CN1CCC(NCc2cc3c(cn2)OCCO3)CC1 | 4.96 | 0.448 | 0.5 (≈ 1.07 µM) | 8 (≈ 17.1 µM) | 0.125 (≈ 0.267 µM) | 0.125 (≈ 0.267 µM) | 4 (≈ 8.56 µM) | 0.31 (≈ 0.663 µM) | IC50 [16]: > 300 µM
8 | COc1ccc2ncc(F)c([C@@H](O)CC[C@@H]3CCN(C4CC(c5ccccn5)C4)C[C@@H]3C(=O)O)c2c1 (stereo not given in full) | 50 | 3.13 | – | – | – | 1 (≈ 2.03 µM) | > 64 | 16 (≈ 32.4 µM) | –
9 | COc1ccc2ncc(F)c([C@@H](O)CC[C@@H]3CCN(C4CC(c5ccccc5F)C4)C[C@@H]3C(=O)O)c2c1 (stereo not given in full) | 19 | 0.78 | 0.125 (≈ 0.245 µM) | 16 (≈ 31.3 µM) | 0.5 (≈ 0.979 µM) | ≤ 0.0625 | 16 (≈ 31.3 µM) | 0.125 (≈ 0.245 µM) | –
10 | COc1ccc2ncc(F)c([C@@H](O)CC[C@@H]3CCN(C4CC(c5c(F)cccc5F)C4)C[C@@H]3C(=O)O)c2c1 (stereo not given in full) | 18.3 | 4.61 | 0.125 (≈ 0.236 µM) | 2.8 (≈ 5.3 µM) | 0.5 (≈ 0.946 µM) | ≤ 0.063 | 3.2 (≈ 6.05 µM) | 0.079 (≈ 0.149 µM) | IC50 [16]: 45.3 µM
11 | COc1ccc2ncc(F)c([C@@H](O)CC[C@@H]3CCN(C4CC(c5cccs5)C4)C[C@@H]3C(=O)O)c2c1 (stereo not given in full) | 9.4 | 0.78 | 0.125 (≈ 0.251 µM) | 16 (≈ 32.1 µM) | 0.5 (≈ 1 µM) | ≤ 0.0625 | 11.3 (≈ 22.7 µM) | 0.125 (≈ 0.251 µM) | –
12 | COc1ccc2ncc(F)c([C@@H](O)CC[C@@H]3CCN(C4CC(c5cc(F)ccc5F)C4)C[C@@H]3C(=O)O)c2n1 (stereo not given in full) | 5.09 | 1.43 | 0.125 to 0.25 (≈ 0.236 to 0.472 µM) | 2.3 (≈ 4.34 µM) | 0.5 to 1 (≈ 0.944 to 1.89 µM) | ≤ 0.0625 | 2.5 (≈ 4.72 µM) | 0.088 (≈ 0.166 µM) | IC50 [16]: 45 µM; Vd [19]: 1.89 L/kg; half-life [4]: 40.2 min; fraction unbound [5]: 0.036 to 0.037; fraction unbound [6]: 0.121 to 0.189; Vd [8]: 0.825 L/kg; Activity [9]: 80.7 mg/kg/day; clearance [10]: 34 mL/min/kg; clearance [20]: 32.7 mL/min/kg; half-life [12]: 16.8 min; fraction unbound [14]: 0.131 to 0.242
